This is an account of results in patent EP4741397A1, “FUSED TRICYCLIC COMPOUND, AND PREPARATION METHOD THEREFOR AND USE THEREOF” (Shenzhen Zhongge Biological Technology Co., Ltd., priority 2023, dated 2025).

Each structure is given as a SMILES string.

The target in one data set is T1, SARM1 (Homo sapiens, UniProt Q6SZW1).
T1 construct: 408-724 expression plasmid and vector-control customized by SinoBio; host or cells: NRK1-HEK293T cells, transient transfection; crude clarified lysate used as the enzyme
T1 sequence (Q6SZW1 408-724 limits assumed): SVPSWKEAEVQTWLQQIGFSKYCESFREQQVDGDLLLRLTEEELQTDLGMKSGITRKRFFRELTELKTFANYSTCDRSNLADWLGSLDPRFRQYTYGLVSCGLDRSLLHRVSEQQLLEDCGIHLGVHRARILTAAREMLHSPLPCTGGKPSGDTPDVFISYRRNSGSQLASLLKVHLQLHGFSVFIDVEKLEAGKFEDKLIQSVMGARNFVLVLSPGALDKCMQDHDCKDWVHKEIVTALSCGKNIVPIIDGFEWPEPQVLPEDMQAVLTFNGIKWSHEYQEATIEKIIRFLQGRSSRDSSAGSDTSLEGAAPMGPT
As to the kind of experiment: In vitro enzyme inhibition activity (SAM-TIR lysate, NAD/ADPR by HPLC-MS/MS). Conditions: SAM-TIR lysate (SARM1 408-724) from NRK1-HEK293T cells; 25°C, 3 h with NAD. In kind it is biochemical. The procedure: NRK1-HEK293T cells were seeded at approximately 10 × 10^6 cells/plate into 150 mm culture dishes containing 25 mL of growth medium. […] At the time of transfection, 250 µL of nicotinamide riboside (100 mM) was added to each dish to minimize toxicity from SAM-TIR overexpression. 48 hours after the transfection, the cells were washed three to four times with cold PBS and collected. The cells were resuspended in 0.5 mL of PBS containing protease inhibitors. Cell lysates were prepared by sonication. The lysate was centrifuged at 12500 rpm for 10 min at 4°C to remove cell debris, and protein concentration was determined by bicinchoninic acid (BCA) assay and used to normalize lysate concentration. The aliquots of supernatant were stored at -80°C until use.
• 1) Transfer the compound dilutions into an assay plate by Echo 650; • 2) Add 10µl 2× SAM-TIR lysate to each well; • 3) Seal the assay plate, centrifuge at 1000rpm for 1min, and incubate at 25°C for 30min; • 4) Add 10µl 2× NAD to each well; • 5) Centrifuge at 1000rpm for 1min, and incubate at 25°C for 3h; • 6) Add 40µL trichloroacetic acid to each well to terminate the reaction, mix and shake for 30s, and centrifuge at 4000rpm for 10min; • 7) Take 40µL supernatant from each well and add appropriate amount of ammonia water to adjust the pH; • 8) Detect nicotinamide adenine dinucleotide (NAD) and adenosine diphosphate ribose (ADPR) by HPLC-MS/MS.

The nature of data set [1]: Liver microsomal stability in vitro. In kind it is in vitro ADME. Conditions: liver microsomes, NADPH, 37 °C, 0-45 min. The procedure:
100 mM K-Mg-buffer containing 5 mM MgCl2 was preheated. The spiking solution was prepared by adding 5 µL of 10 mM compound and reference stock solution to 95 µL of acetonitrile (ACN). 1.5 µL of 500 µM spiking solution and 18.75 µL of 20 mg/mL liver microsomes were added to 479.8 µL of K-Mg-buffer. NADPH stock solution (3 mM) was prepared by dissolving NADPH in K-Mg-buffer. 30 µL of 1.5 µM spiking solution containing microsomes was evenly dropped into the assay plate at different time points (0, 5, 15, 30, and 45 min), and pre-incubated at 37 °C for 5 min. At 0 min, 200 µL of ACN containing IS (internal standard, tolbutamid/terfenadine) was added to the wells, then 15 µL of NADPH stock solution (6 mM) was added. For the other time points, the reaction was initiated and timed by adding 15 µL of NADPH stock solution (6 mM) to the wells. The reaction was stopped by adding 200 µL of ACN containing IS to the corresponding plate wells at 5, 15, 30, and 45 min, respectively. After quenching, the plate was shaken at 600 rpm for 10 min and then centrifuged at 4000 rpm for 50 min. 80 µL of supernatant per well was pipetted to a 96-well sample plate containing 160 µL of pure water for UPLC/MS/MS analysis.
Background: Liver microsomes are vesicles of endoplasmic reticulum, rich in cytochrome P450 enzymes.

Data set [2] is described as follows: Cell membrane permeability (cell monolayer, A to B and B to A). The note with it: 120 min, 37°C. In kind it is in vitro ADME. The procedure:
Test compounds were diluted from 10 mM stock solution to a concentration of 10 µM in transport buffer (HBSS + BSA) and applied to the apical or basolateral side of the cell monolayer. The permeability of the test compounds was determined in both direction of from A to B and B to A directions after 120 min incubation at 37°C, 5% CO2 and 95% relative humidity. In addition, the efflux ratio of each compound was determined. The analyte and reference compounds were quantified by LC-MS/MS based on the analyte/IS peak area ratio.

With `O=C1C(Cc2ccc(Cl)c(F)c2)CCN1c1nc2ccc3cnccc3c2[nH]1` (centres unmarked) [Cpd. 5], the IC50 (in general, the point on the concentration scale where inhibition reaches its midpoint) at SARM1 was under 150 nM. For the compound `O=C(CCc1ccc(Cl)c(F)c1)Nc1nc2ccc3cnccc3c2[nH]1` [Cpd. 9], the IC50 at SARM1 was under 150 nM. Besides, the half-life (as a rule, the time needed for the level to fall by half in the phase considered) in data set [1] is 19.7 min. As to `O=C1C(Cc2ccc(Cl)cc2)CCN1c1nc2ccc3cnccc3c2[nH]1` (centres unmarked) [Cpd. 2], the IC50 on SARM1 is under 150 nM. Consider `O=C1C(Cc2ccc(F)c(Cl)c2)CCN1c1nc2ccc3cnccc3c2[nH]1` (centres unmarked) [Cpd. 3], for which, at SARM1, the 50% inhibitory concentration (IC50) fell in the range of 500 to 1000 nM. Still for that read-out and setting: then `C=C(CCc1ccc(Cl)cc1)C(=O)Nc1nc2ccc3cnccc3c2[nH]1` [Cpd. 11], with over 1000 nM. For the compound `O=C1C(Cc2ccc(Cl)c(F)c2)CCN1c1nc2ccc3cnccc3c2[nH]1` (single isomer, unassigned) [Cpd. 19], on SARM1, the concentration for half-maximal inhibition (IC50) is under 150 nM. Still for that read-out and setting: the figure for `O=C1C(Cc2cnc(Cl)c(F)c2)CCN1c1nc2ccc3cnccc3c2[nH]1` (centres unmarked) [Cpd. 7] is 150 to 500 nM. For the compound `O=C1C(Cc2cc(F)c(Cl)c(F)c2)CCN1c1nc2ccc3cnccc3c2[nH]1` (centres unmarked) [Cpd. 4], the IC50 against SARM1 is under 150 nM. Besides, the efflux ratio (as a rule, a quotient of directional permeabilities that is used to spot active efflux) at 2 h, 10 µM in data set [2] worked out at 1.15. The apparent permeability from apical to basolateral (Papp A→B) (commonly how fast a substance crosses the layer from the apical side) at 2 h, 10 µM in data set [2] (A to B) is 11 ×10⁻⁶ cm/s. The compound further showed a half-life in data set [1] of 28.9 min.

`O=C1C(Cc2ccc(Cl)c(F)c2)CCN1c1nc2c(ccc3cnccc32)o1` (centres unmarked) [Cpd. 20] registered an IC50 against SARM1 of under 150 nM. Compound `O=C1C(Cc2ccc(Cl)c(F)c2)CCN1c1nc2ccc3cnccc3c2[nH]1` (single isomer, unassigned) [Cpd. 18] showed a concentration for half-maximal inhibition (IC50) on SARM1 of under 150 nM. Still for that read-out and setting: then `O=C(CCc1ccc(Cl)c(F)c1)Nc1nc2c(ccc3cnccc32)o1` [Cpd. 22], with 150 to 500 nM; and `O=C1C(Cc2ccc(Cl)c(F)c2)CCCN1c1nc2c(ccc3cnccc32)o1` (centres unmarked) [Cpd. 21], with 150 to 500 nM. In turn, `O=C1C(Cc2ccc(Cl)c(Cl)c2)CCN1c1nc2ccc3cnccc3c2[nH]1` (centres unmarked) [Cpd. 6] had an IC50 on SARM1 of 150 to 500 nM.

`O=C1C(Cc2cc(F)c(Cl)c(F)c2)CCCN1c1nc2ccc3cnccc3c2[nH]1` (centres unmarked) [Cpd. 14]: at SARM1, the 50% inhibitory concentration (IC50) is under 150 nM. The same measure, in the same setting: then `O=C(CCc1ccc(Cl)cc1)Nc1nc2ccc3cnccc3c2[nH]1` [Cpd. 8], with under 150 nM. The same measure, in the same setting: then `O=C(CCc1ccc(Cl)cc1)Nc1[nH]nc2c1ccc1cnccc12` [Cpd. 12], with 500 to 1000 nM. In turn, `O=C(CCc1ccc(Cl)c(F)c1)Nc1nc2c([nH]1)COc1cnccc1-2` [Cpd. 23] had an IC50 at SARM1 of under 150 nM. For the same compound, the half-life in data set [1] was determined as 37.4 min. The matching figures for `O=C(CCc1cnc(Cl)c(F)c1)Nc1nc2ccc3cnccc3c2[nH]1` [Cpd. 10]: 150 to 500 nM and 21.1 min. With `O=C1C(Cc2ccc(Cl)c(F)c2)CCCN1c1nc2ccc3cnccc3c2[nH]1` (centres unmarked) [Cpd. 15], at SARM1, the IC50 is under 150 nM. Same read-out and setting: the figure for `O=C1C(Cc2ccc(Cl)c(F)c2)CCN1c1nc2c([nH]1)COc1cnccc1-2` (centres unmarked) [Cpd. 24] is under 150 nM.
